DBAASP
Converted amounts (≈) assume the structure as drawn. “And” between values parts separate entries of the source, which are not always exact repeats. Identical values can stand only once. Each block holds one compound with its values, some of them ahead of it.

Assays:
Assay in all cases: ≥ marks a high value that may be exact or a test limit, other limits are often not marked, values filed in µg/mL are converted to µM
[1] = system: Mycobacterium tuberculosis CSU87
[2] = system: Mycobacterium tuberculosis H37Rv
[3] = system: Acinetobacter baumannii ATCC 19606
[4] = system: Candida albicans ATCC 90028
[5] = system: Candida parapsilosis ATCC 22019
[6] = system: Enterococcus faecalis ATCC 29212
[7] = system: Escherichia coli ATCC 25922
[8] = system: Klebsiella pneumoniae ATCC 13883
Listeria ivanovii = system: Listeria ivanovii
[9] = system: Pseudomonas aeruginosa ATCC 27853
Saccharomyces cerevisiae = system: Saccharomyces cerevisiae
[10] = system: Staphylococcus aureus ATCC 25923
[11] = system: Staphylococcus aureus ATCC BAA-44
[12] = system: Streptococcus pyogenes ATCC 19615
Aerococcus viridans = system: Aerococcus viridans
Alternaria brassicicola = system: Alternaria brassicicola
Ascochyta pisi = system: Ascochyta pisi
Bacillus megaterium = system: Bacillus megaterium
Bacillus subtilis = system: Bacillus subtilis
Botrytis cinerea = system: Botrytis cinerea
Escherichia coli D22 = system: Escherichia coli D22
Escherichia coli D31 = system: Escherichia coli D31
Fusarium culmorum = system: Fusarium culmorum
Fusarium haematococcum = system: Fusarium haematococcum
Micrococcus luteus = system: Micrococcus luteus
Neurospora crassa = system: Neurospora crassa
Pediococcus acidilactici = system: Pediococcus acidilactici
Salmonella typhimurium = system: Salmonella typhimurium
Trichoderma viride = system: Trichoderma viride
[13] = system: Bacillus subtilis BGSC 1A1
Klebsiella pneumoniae = system: Klebsiella pneumoniae
[14] = system: Mycobacterium tuberculosis mc2-6020
[15] = system: Mycobacterium tuberculosis mc2-6230
Streptococcus agalactiae = system: Streptococcus agalactiae
Streptococcus mutans = system: Streptococcus mutans
[16] = system: Streptococcus pneumoniae ATCC 49619
Streptococcus pyogenes = system: Streptococcus pyogenes
[17] = system: Streptococcus mutans UA159
[18] = system: Streptococcus sanguinis ATCC 10556
[19] = system: Streptococcus sobrinus ATCC 6715
Bacillus subtilis PS832 = system: Bacillus subtilis PS832
Escherichia coli DL7 = system: Escherichia coli DL7
[20] = system: Escherichia coli MG1655 ΔrecA
Escherichia coli MG1655 = system: Escherichia coli MG1655
[21] = system: Klebsiella aerogenes ATCC 13048
[22] = system: Staphylococcus epidermidis ATCC 12228

SMILES: CC(C)C[C@H](NC(=O)[C@H](CC(C)C)NC(=O)[C@H](CCCCN)NC(=O)[C@H](CCCCN)NC(=O)[C@H](CC(C)C)NC(=O)[C@H](CC(C)C)NC(=O)[C@@H](N)CS)C(=O)N[C@@H](CCCCN)C(=O)N[C@@H](CCCCN)C(N)=O [CLLKKLLKK]
- MIC [1]: ≥ 460 µM
- MIC [2]: ≥ 460 µM

SMILES: CC[C@H](C)[C@H](NC(=O)[C@H](CCCN=C(N)N)NC(=O)[C@H](CO)NC(=O)[C@H](CC(C)C)NC(=O)[C@H](Cc1ccccc1)NC(=O)[C@H](CO)NC(=O)[C@@H](N)Cc1ccccc1)C(=O)N[C@@H](Cc1ccccc1)C(N)=O [FSFLSRIF]
- MIC [3]: > 100 µM
- MIC [4]: ≥ 100 µM
- MIC [5]: ≥ 100 µM
- MIC [6]: > 100 µM
- MIC [7]: 100 µM (≈ 102 µg/mL)
- MIC [8]: ≥ 100 µM
- MIC (Listeria ivanovii): ≥ 100 µM
- MIC [9]: > 100 µM
- MIC (Saccharomyces cerevisiae): 25 µM (≈ 25.4 µg/mL)
- MIC [10]: > 100 µM
- MIC [11]: ≥ 100 µM
- MIC [12]: ≥ 50 µM

SMILES: CC[C@H](C)[C@H](NC(=O)[C@@H](NC(=O)[C@@H]1CCCN1C(=O)[C@@H](NC(=O)[C@@H]1CCCN1C(=O)[C@H](CCCCN)NC(=O)[C@H](CCCCN)NC(=O)[C@H](CO)NC(=O)CN)C(C)C)[C@@H](C)CC)C(=O)N[C@@H](Cc1ccc(O)cc1)C(=O)N[C@H]1CSSC[C@@H](C(=O)N[C@@H](CCC(N)=O)C(=O)N[C@@H](CCCN=C(N)N)C(=O)O)NC(=O)[C@H](CCCCN)NC(=O)CNC(=O)[C@H]([C@@H](C)O)NC(=O)[C@H](CCCN=C(N)N)NC(=O)[C@H](CCCN=C(N)N)NC(=O)[C@H](CC(N)=O)NC1=O [GSKKPVPIIYCNRRTGKCQR]
- MIC (Aerococcus viridans): 3.54 µM (≈ 8.14 µg/mL)
- MIC (Alternaria brassicicola): 7.07 µM (≈ 16.3 µg/mL)
- MIC (Ascochyta pisi): 14.1 µM (≈ 32.6 µg/mL)
- MIC (Bacillus megaterium): 3.54 µM (≈ 8.14 µg/mL)
- MIC (Bacillus subtilis): 28.3 µM (≈ 65.1 µg/mL)
- MIC (Botrytis cinerea): 7.07 µM (≈ 16.3 µg/mL)
- MIC (Escherichia coli D22): 28.3 µM (≈ 65.1 µg/mL)
- MIC (Escherichia coli D31): 28.3 µM (≈ 65.1 µg/mL)
- MIC (Fusarium culmorum): 14.1 µM (≈ 32.6 µg/mL)
- MIC (Fusarium haematococcum): 3.54 µM (≈ 8.14 µg/mL)
- MIC (Micrococcus luteus): 3.54 µM (≈ 8.14 µg/mL)
- MIC (Neurospora crassa): 7.07 µM (≈ 16.3 µg/mL)
- MIC (Pediococcus acidilactici): 28.3 µM (≈ 65.1 µg/mL)
- MIC (Salmonella typhimurium): 28.3 µM (≈ 65.1 µg/mL)
- MIC (Trichoderma viride): 14.1 µM (≈ 32.6 µg/mL)

SMILES: NCCCC[C@H](NC(=O)[C@H](CCCCN)NC(=O)[C@H](Cc1ccccc1)NC(=O)[C@H](Cc1ccccc1)NC(=O)[C@H](CCCCN)NC(=O)[C@H](CCCCN)NC(=O)[C@H](Cc1ccccc1)NC(=O)[C@H](Cc1ccccc1)NC(=O)[C@@H](N)CCCCN)C(=O)N[C@@H](Cc1c[nH]c2ccccc12)C(=O)O [KFFKKFFKKW]
- MIC [17]: ≥ 357 µM
- MIC [18]: ≥ 357 µM
- MIC [19]: ≥ 179 µM

The remaining lines, values ahead:

- MIC [13]: 4 µM (≈ 7.55 µg/mL)
- MIC [7]: 16 µM (≈ 30.2 µg/mL)
- MIC (Klebsiella pneumoniae): 136 µM (≈ 257 µg/mL)
- MIC [14]: 16 µM (≈ 30.2 µg/mL)
- MIC [15]: ≥ 32 µM
- MIC [9]: 32 µM (≈ 60.4 µg/mL)
- MIC [10]: 32 µM (≈ 60.4 µg/mL)
- MIC (Streptococcus agalactiae): 8 µM (≈ 15.1 µg/mL)
- MIC (Streptococcus mutans): 4 µM (≈ 7.55 µg/mL)
- MIC [16]: 16 µM (≈ 30.2 µg/mL)
- MIC (Streptococcus pyogenes): 2 µM (≈ 3.77 µg/mL)
SMILES: CC[C@H](C)[C@H](N)C(=O)N[C@@H](CC(C)C)C(=O)N[C@@H](CO)C(=O)N[C@@H](CC(C)C)C(=O)N[C@@H](CCCN=C(N)N)C(=O)N[C@@H](Cc1c[nH]c2ccccc12)C(=O)N[C@@H](Cc1c[nH]c2ccccc12)C(=O)N[C@@H](CCCN=C(N)N)C(=O)N[C@@H](CCCCN)C(=O)N[C@@H](Cc1c[nH]c2ccccc12)C(=O)N[C@@H](Cc1c[nH]c2ccccc12)C(=O)N[C@@H](CCCCN)C(=O)N[C@@H](CCCCN)C(=O)O [ILSLRWWRKWWKK]

- MIC (Bacillus subtilis PS832): 8 µM (≈ 16 µg/mL)
- MIC (Escherichia coli DL7): ≥ 32 µM and 16 µM
- MIC [20]: ≥ 32 µM
- MIC (Escherichia coli MG1655): ≥ 64 µM
- MIC [21]: ≥ 64 µM
- MIC [2]: ≥ 300 µM
- MIC [22]: 8 µM (≈ 16 µg/mL)
- MIC [16]: ≥ 300 µM
SMILES: CC(C)C[C@H](NC(=O)CNC(=O)[C@H](C)NC(=O)[C@@H](N)CCCN=C(N)N)C(=O)N[C@@H](CCC(N)=O)C(=O)N[C@@H](Cc1ccccc1)C(=O)N1CCC[C@H]1C(=O)N[C@H](C(=O)NCC(=O)N[C@@H](CCCN=C(N)N)C(=O)N[C@H](C(=O)N[C@@H](Cc1cnc[nH]1)C(=O)N[C@@H](CCCN=C(N)N)C(=O)N[C@@H](CC(C)C)C(=O)N[C@@H](CC(C)C)C(=O)N[C@@H](CCCN=C(N)N)C(=O)N[C@@H](CCCCN)C(N)=O)C(C)C)C(C)C [RAGLQFPVGRVHRLLRK]
